According to ChEMBL document CHEMBL1201862, “PubChem BioAssay data set” (2004):
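96-well plates; 48 h exposure; 5 concentrations. Endpoints by linear interpolation between flanking doses. Not reached: highest tested concentration assigned. GI50: concentration for 50% inhibition of growth.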 Calls of active or inactive are those of the source. No stated cut-off is given here; in the data, active = GI50 up to about 1.1 µM and inactive = higher.

Key:
Assay in all cases: NCI-60 cell line screen, 48 h
[1] = tested on: 786-0
[2] = tested on: A498
[3] = tested on: A549
[4] = tested on: CCRF-CEM
[5] = tested on: DU-145
[6] = tested on: HL-60
[7] = tested on: HOP-92
[8] = tested on: M14
[9] = tested on: MDA-MB-435
[10] = tested on: MOLT-4
[11] = tested on: NCI-H226
[12] = tested on: NCI-H522
[13] = tested on: OVCAR-4
[14] = tested on: OVCAR-5
[15] = tested on: OVCAR-8
[16] = tested on: SF-295
[17] = tested on: SK-MEL-28
[18] = tested on: U-251
[19] = tested on: UACC-62
[20] = tested on: TK-10

| Structure (SMILES) | GI50 [1] | GI50 [2] | GI50 [3] | GI50 [4] | GI50 [5] | GI50 [6] | GI50 [7] | GI50 [8] | GI50 [9] | GI50 [10] | GI50 [11] | GI50 [12] | GI50 [13] | GI50 [14] | GI50 [15] | GI50 [16] | GI50 [17] | GI50 [18] | GI50 [19] | GI50 [20] |
| --- | --- | --- | --- | --- | --- | --- | --- | --- | --- | --- | --- | --- | --- | --- | --- | --- | --- | --- | --- | --- |
| O=C1OCC2OC(=O)c3cc(O)c(O)c(O)c3-c3c(O)c(O)c(O)c4c3C(=O)OC(C2OC(=O)c2cc(O)c(O)c(O)c2-c2c1cc(O)c(O)c2O)C1OC(=O)c2c-4c(O)c(O)c(O)c2[C@@H]1C(O)C(O)C(O)C(O)CO (some centres undefined) | 17.4 µM (inactive) | 26.4 µM (inactive) | 16.4 µM (inactive) | 4.75 µM (inactive) | 20.2 µM (inactive) | 17 µM (inactive) | 18.2 µM (inactive) | 17.8 µM (inactive) | 4.42 µM (inactive) | 20.4 µM (inactive) | 17.6 µM (inactive) | 18.8 µM (inactive) | 16.6 µM (inactive) | 16 µM (inactive) | 23.3 µM (inactive) | 20.1 µM (inactive) | 49.1 µM (inactive) | 20.4 µM (inactive) | 17.8 µM (inactive) |  |
| C=CC[C@@]1(C(=O)OC)[C@H](Sc2ccccc2)C1(C)C | 33.4 µM (inactive) | 31.3 µM (inactive) | 32.5 µM (inactive) | 28.8 µM (inactive) | 67.9 µM (inactive) | 16.2 µM (inactive) | 13.8 µM (inactive) | 56.8 µM (inactive) | 30.9 µM (inactive) | 14.4 µM (inactive) | 35.5 µM (inactive) | 30.5 µM (inactive) | 43.7 µM (inactive) | 80.9 µM (inactive) | 53.8 µM (inactive) | 36.1 µM (inactive) | 78.2 µM (inactive) | 49.2 µM (inactive) | 45.5 µM (inactive) | > 100 µM (inactive) |
| COC(=O)c1c(C(=O)OC)c2ccc(-c3ccc(Cl)cc3)nn2c1C(=O)c1ccc([N+](=O)[O-])cc1 | 39.4 µM (inactive) | > 100 µM (inactive) | > 100 µM (inactive) | 17.1 µM (inactive) | > 100 µM (inactive) | < 0.01 µM (active) | 10.8 µM (inactive) | 40.6 µM (inactive) | 50.1 µM (inactive) | 15.3 µM (inactive) | > 100 µM (inactive) | 17.4 µM (inactive) | 42.3 µM (inactive) | > 100 µM (inactive) | 36.2 µM (inactive) | > 100 µM (inactive) | > 100 µM (inactive) | > 100 µM (inactive) | > 100 µM (inactive) | 28.1 µM (inactive) |
| COc1c2c(cc3c1OCO3)[C@]13C=C[C@H](OC)C[C@H]1N(C2)CC3O (some centres undefined) | > 100 µM (inactive) | > 100 µM (inactive) | > 100 µM (inactive) | > 100 µM (inactive) | > 100 µM (inactive) | > 100 µM (inactive) | > 100 µM (inactive) | > 100 µM (inactive) | > 100 µM (inactive) | 99.1 µM (inactive) | > 100 µM (inactive) | > 100 µM (inactive) | > 100 µM (inactive) | > 100 µM (inactive) | > 100 µM (inactive) | > 100 µM (inactive) | > 100 µM (inactive) | > 100 µM (inactive) | > 100 µM (inactive) | > 100 µM (inactive) |
| Cc1c(C)c(S(=O)(=O)N(CCCCN)OCCCN)c(C)c2c1OC(C)(C)CC2 | 13.7 µM (inactive) | 16 µM (inactive) | 19.2 µM (inactive) | 16.4 µM (inactive) | 23.7 µM (inactive) | 1 µM (active) | 17.8 µM (inactive) | 28.6 µM (inactive) | 16.5 µM (inactive) | 19.6 µM (inactive) | 13.1 µM (inactive) | 13.1 µM (inactive) | 13.8 µM (inactive) | 15.1 µM (inactive) | 18.7 µM (inactive) | 17.7 µM (inactive) | 19.6 µM (inactive) | 21.9 µM (inactive) | 20.7 µM (inactive) | 14.5 µM (inactive) |
| CCN(CC)c1ccc2c(c1)OC(=O)C(c1nnc(-c3ccc([N+](=O)[O-])cc3)o1)C2 (centres undefined) | > 100 µM (inactive) | > 100 µM (inactive) | > 100 µM (inactive) | 34.2 µM (inactive) | > 100 µM (inactive) | 84.5 µM (inactive) | > 100 µM (inactive) | > 100 µM (inactive) | > 100 µM (inactive) | > 100 µM (inactive) | > 100 µM (inactive) | > 100 µM (inactive) | > 100 µM (inactive) | > 100 µM (inactive) | > 100 µM (inactive) | > 100 µM (inactive) | > 100 µM (inactive) | > 100 µM (inactive) | > 100 µM (inactive) | > 100 µM (inactive) |
